Data set [1] deals with rat. Particulars: Multigenerational reproductive toxicity study, other, Oral, Feed, dose end: 2 generation.
In data set [2] the test system is rat. Particulars: Subchronic oral toxicity in rodents, sprague dawley, Feed, dose end: 13 week.
The subject of data set [3] is rat. As to conditions: Prenatal developmental toxicity study, sprague dawley, Oral, Gavage/Intubation, dose end: 16 GD.
The test system of data set [4] is rat. As to conditions: Prenatal developmental toxicity study, sprague dawley, Oral, Gavage/Intubation, dose end: 15 GD.
The test system of data set [5] is rat. As to conditions: Prenatal developmental toxicity study, wistar, Inhalation, Whole-Body, dose end: 15 GD.
A further data set has as its system rabbit. Particulars: Prenatal developmental toxicity study, himalayan, Inhalation, Whole-Body, dose end: 29 GD.
The test system of data set [6] is rat. As to conditions: Multigenerational reproductive toxicity study, sprague dawley, Oral, Feed, dose end: 2 generation.
For data set [7], the system named is rat. As to conditions: Multigenerational reproductive toxicity study, sprague dawley, Oral, Feed, dose end: 2 generation. The source holds these as a separate data set.
Data set [8] has as its system rat. Particulars: Fertility (Segment I), Oral, Gavage/Intubation, dose end: 1 generation.
The test system of data set [9] is rat. As to conditions: Fertility (Segment I), Oral, Gavage/Intubation, dose end: 1 generation. This is another data set of the same source.
The test system of data set [10] is rat. As to conditions: Prenatal developmental toxicity study, Oral, Gavage/Intubation, dose end: 18 GD.
[11] abbreviates: group: parental, systemic / in life observation / body weight / body weight + systemic / in life observation / body weight / body weight gain.
Setting [12] is: group: reproductive, reproductive / reproductive performance / fertility / fertility + reproductive / reproductive performance / precoital interval / precoital ….
The mark [13] stands for this setting: group: maternal, reproductive / reproductive performance / estrous cycle / length.
Setting [14] is: group: systemic, systemic / clinical chemistry / calcium / calcium + systemic / clinical chemistry / globulins / globulins + systemic / clinical chemistry / ….
Setting [15] is: group: developmental, developmental / developmental malformation / bone / incomplete ossification + developmental / developmental malformation / bone / unossified….
Where [16] appears, read: group: maternal, systemic / in life observation / body weight / body weight gain.
Where [17] appears, read: group: maternal, systemic / in life observation / body weight / body weight gain + reproductive / reproductive performance / postimplantation loss / ….
[18] abbreviates: group: developmental, developmental / developmental malformation / bone / delayed ossification.
Setting [19] is: group: developmental, developmental / developmental malformation / bone / delayed ossification + developmental / developmental malformation / ureter / distended.
Setting [20] is: group: maternal, systemic / in life observation / body weight / body weight gain + systemic / in life observation / food consumption / food consumption.
Where [21] appears, read: group: maternal, systemic / in life observation / body weight / body weight gain + systemic / in life observation / food consumption / food consumption + ….
[22] abbreviates: group: developmental, developmental / developmental malformation / bone / incomplete ossification + developmental / developmental malformation / bone / ….
[23] abbreviates: group: developmental, developmental / developmental malformation / bone / malpositioned.
[24] abbreviates: group: maternal, systemic / in life observation / mortality / mortality.
The mark [25] stands for this setting: group: developmental, developmental / developmental malformation / heart / [other] + developmental / developmental malformation / limb / [other].
Setting [26] is: group: offspring, systemic / in life observation / body weight / offspring (pup) weight.
Setting [27] is: group: parental, systemic / pathology microscopic / stomach / proliferation.
[28] abbreviates: group: maternal, reproductive / reproductive performance / estrous cycle / abnormal + reproductive / reproductive performance / estrous cycle / corpora lutea….
[29] abbreviates: group: parental, systemic / in life observation / clinical signs / alopecia.
Where [30] appears, read: group: parental, systemic / in life observation / clinical signs / alopecia + systemic / in life observation / body weight / body weight + systemic / in life….
[31] abbreviates: group: maternal, reproductive / reproductive performance / fertility / fertility + reproductive / reproductive performance / pregnancy index / pregnancy ….
Setting [32] is: group: parental, systemic / in life observation / body weight / body weight + systemic / in life observation / clinical signs / body surface staining + ….
Setting [33] is: group: parental, systemic / in life observation / clinical signs / convulsions.
The mark [34] stands for this setting: group: developmental, developmental / developmental malformation / eye / microphthalmia + developmental / developmental malformation / general / situs inversus + ….
The mark [35] stands for this setting: group: maternal, reproductive / reproductive performance / postimplantation loss / postimplantation loss + reproductive / reproductive performance / ….

The results in this text go back to EPA's ToxRefDB 2.

What is called LOAEL is the lowest dose or exposure tested at which an adverse effect was seen. The term NOAEL denotes the highest dose or exposure tested at which no adverse effect was seen.

The structures appear in SMILES notation. Some results are limits rather than exact numbers.

As for `C[C@H]1O[C@H](OC2[C@@H](O)[C@@H](O)C(O)[C@H](O)[C@H]2O)[C@@H](N)C[C@@H]1N=C(N)C(=O)O` (some centres not stated) [Kasugamycin], in the data set on rat [1] (setting [11]), the LEL was found to be 70.3 mg/kg/day, the lowest observed adverse effect level (LOAEL) was 70.3 mg/kg/day, the NEL came out at 13.7 mg/kg/day and the no observed adverse effect level (NOAEL) worked out at 13.7 mg/kg/day. In addition, in the data set with rat [1] (setting [12]), the LEL stood at 425 mg/kg/day, the lowest observed adverse effect level (LOAEL) came out at 425 mg/kg/day, the NEL came to 70.3 mg/kg/day and the NOAEL was determined as 70.3 mg/kg/day.

In the case of `Nc1nc(N)nc(Cl)n1` [2-Chloro-4,6-diamino-1,3,5-triazine], the LEL with rat [2] (setting [13]) came out at 7.6 mg/kg/day; in the data set with rat [2] (group: systemic, systemic / clinical chemistry / protein / protein) it was 16.7 mg/kg/day; with rat [3] (setting [15]), 25 mg/kg/day; in the data set on rat [3] (setting [16]), 75 mg/kg/day. Also, the LOAEL is 7.6 mg/kg/day in the data set on rat [2] (setting [13]), more than 34.1 mg/kg/day in the data set with rat [2] (setting [14]), 25 mg/kg/day in the data set on rat [3] (setting [15]) and 75 mg/kg/day with rat [3] (setting [16]). Besides, the NEL in the data set with rat [2] (setting [13]) was determined as 0.7 mg/kg/day; in the data set on rat [2] (setting [14]), 6.7 mg/kg/day; in the data set with rat [3] (setting [15]), 2.5 mg/kg/day; with rat [3] (setting [17]), 25 mg/kg/day. The NOAEL in the data set on rat [2] (setting [13]) is 0.7 mg/kg/day; in the data set with rat [2] (setting [14]), not below 34.1 mg/kg/day; in the data set on rat [3] (setting [15]), 2.5 mg/kg/day; with rat [3] (setting [17]) it was 25 mg/kg/day.

In the case of `COC[C@H](C)N(C(=O)CCl)c1c(C)csc1C` [Dimethenamid-P], the values for the LEL with rat [4] (setting [18]) and in the data set with rat [4] (setting [21]) were 150 mg/kg/day and 25 mg/kg/day, respectively. Further, the lowest-observed-adverse-effect level (LOAEL) came to 150 mg/kg/day in the data set on rat [4] (setting [18]) and 25 mg/kg/day with rat [4] (setting [20]). For the same compound, the NEL in the data set on rat [4] (setting [19]) was 25 mg/kg/day; in the data set on rat [4] (setting [21]), less than 25 mg/kg/day. The NOAEL with rat [4] (setting [19]) is 25 mg/kg/day; in the data set with rat [4] (setting [20]), less than 25 mg/kg/day.

Take `CC(C)CCO` [Isopentyl alcohol]: the LOAEL in the data set on rat [5] (setting [22]) is more than 10 ppm; in the data set on rat [5] (setting [24]) it was more than 10 ppm; in the data set on rabbit (setting [25]), more than 10 ppm; with rabbit (setting [24]), 2.5 ppm. The no-observed-adverse-effect level (NOAEL) with rat [5] (setting [22]) is not below 10 ppm; in the data set with rat [5] (setting [24]) it was not below 10 ppm; in the data set with rabbit (setting [25]), not below 10 ppm; in the data set with rabbit (setting [24]), 0.5 ppm. Further, the LEL in the data set on rat [5] (setting [23]) worked out at 0.5 ppm; in the data set on rat [5] (setting [24]), 0.5 ppm; in the data set with rabbit (setting [25]) it was 0.5 ppm; in the data set with rabbit (setting [24]) it was 2.5 ppm. The NEL with rat [5] (setting [23]) is less than 0.5 ppm; in the data set on rat [5] (setting [24]), less than 0.5 ppm; in the data set with rabbit (setting [25]), less than 0.5 ppm; with rabbit (setting [24]), 0.5 ppm.

Turning to `CC1COc2ccccc2N1C(=O)C(Cl)Cl` (configuration not stated) [Benoxacor], in the data set on rat [6] (setting [26]), the LEL worked out at 45.5 mg/kg/day, the lowest-observed-adverse-effect level (LOAEL) was found to be 45.5 mg/kg/day, the NEL is 4.2 mg/kg/day and the NOAEL came to 4.2 mg/kg/day. For the same compound, in the data set with rat [6] (setting [11]), the LEL is 34.8 mg/kg/day, the lowest-observed-adverse-effect level (LOAEL) worked out at 34.8 mg/kg/day, the NEL turned out to be 3.55 mg/kg/day and the no observed adverse effect level (NOAEL) came to 3.55 mg/kg/day.

`O=C([O-])C1C2CCC(O2)C1C(=O)[O-].[Na+].[Na+]` (configuration not stated) [Disodium endothal]: in the data set with rat [7] (setting [26]), the LEL was 10.9 mg/kg/day, the LOAEL was found to be 77.1 mg/kg/day, the NEL was 2.1 mg/kg/day and the no observed adverse effect level (NOAEL) stood at 10.9 mg/kg/day. Besides, in the data set with rat [7] (setting [27]), the LEL came to 2.1 mg/kg/day, the LOAEL amounted to 2.1 mg/kg/day, the NEL is less than 2.1 mg/kg/day and the NOAEL was less than 2.1 mg/kg/day.

For `O=C(N[C@H]1CN2CCC1CC2)c1cc2ccoc2cn1`, the LEL in the data set with rat [8] (setting [28]) is 150 mg/kg/day; in the data set with rat [8] (setting [29]), 5 mg/kg/day; in the data set with rat [9] (setting [31]), 150 mg/kg/day; in the data set on rat [9] (setting [33]), 7 mg/kg/day; in the data set with rat [10] (group: developmental, developmental / developmental malformation / great vessels / [other]), 20 mg/kg/day; with rat [10] (group: maternal, systemic / in life observation / clinical signs / alopecia), 20 mg/kg/day. Moreover, the lowest observed adverse effect level (LOAEL) is more than 150 mg/kg/day with rat [8] (setting [28]); more than 150 mg/kg/day in the data set on rat [8] (setting [30]); more than 175 mg/kg/day in the data set with rat [9] (setting [31]); more than 175 mg/kg/day in the data set with rat [9] (setting [32]); more than 150 mg/kg/day with rat [10] (setting [34]); more than 150 mg/kg/day with rat [10] (setting [35]). In addition, the NEL in the data set on rat [8] (setting [28]) was 50 mg/kg/day; in the data set on rat [8] (setting [29]), less than 5 mg/kg/day; in the data set with rat [9] (setting [31]) it was 75 mg/kg/day; with rat [9] (setting [33]) it was less than 7 mg/kg/day; in the data set on rat [10] (setting [35]), 5 mg/kg/day. In addition, the no-observed-adverse-effect level (NOAEL) with rat [8] (setting [28]) is not below 150 mg/kg/day; with rat [8] (setting [30]), not below 150 mg/kg/day; in the data set on rat [9] (setting [31]), not below 175 mg/kg/day; with rat [9] (setting [32]), not below 175 mg/kg/day; in the data set on rat [10] (setting [34]), not below 150 mg/kg/day; with rat [10] (setting [35]), not below 150 mg/kg/day.
